In publication PMC6934184, “Selective DNA-PKcs inhibition extends the therapeutic index of localized radiotherapy and chemotherapy” (The Journal of Clinical Investigation, 2019):

Target: T1, MAPK11 (p38 beta) (Homo sapiens, UniProt Q15759)
T1 construct: purchased Thermo Fisher Scientific (Life Technologies) SelectScreen
Assay: SelectScreen Z'LYTE
Type: biochemical
Method in brief: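 NU5455 was profiled across the SelectScreen Broad panel of kinase activity and binding assays. Z'LYTE reactions such as CSF1R ran at apparent Km ATP, while the Adapta CAMK1 assay used ATP listed as 10. Values are given as percent.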

T1 sequence (Q15759 whole entry): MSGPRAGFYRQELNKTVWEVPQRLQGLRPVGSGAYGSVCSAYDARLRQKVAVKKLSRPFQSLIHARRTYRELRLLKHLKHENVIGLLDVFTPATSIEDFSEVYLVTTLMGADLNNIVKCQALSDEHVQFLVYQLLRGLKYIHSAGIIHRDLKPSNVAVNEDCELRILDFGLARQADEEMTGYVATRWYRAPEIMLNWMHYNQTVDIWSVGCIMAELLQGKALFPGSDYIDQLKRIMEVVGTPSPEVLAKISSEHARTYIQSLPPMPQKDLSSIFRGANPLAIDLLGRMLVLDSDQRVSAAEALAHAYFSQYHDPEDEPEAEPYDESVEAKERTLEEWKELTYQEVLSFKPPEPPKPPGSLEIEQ

`CN(C(=O)CN1CCOCC1)c1ccc2sc3c(-c4cccc5c(=O)cc(N6CC7CCC(C6)O7)oc45)cccc3c2c1` [NU5455] gave an inhibition at 1 µM of 9.5%.
